ChEMBL document CHEMBL1155258, “Computational selection of inhibitors of Abeta aggregation and neuronal toxicity” (Bioorg Med Chem, 2009)
Calls of active or inactive are those of the source. The rule behind the calls is not given here.

Columns and labels:
[1] = Inhibition of amyloid beta (1-42) self-aggregation at 4uM after 24 hrs by sedimentation assay with ELISA
[2] = Inhibition of amyloid beta (1-42) self-aggregation after 24 hrs by sedimentation assay with ELISA
N2a [3] = test: Neurotoxicity against mouse N2A cells after 24 hrs by MTS assay; format: toxicity, cell-based
N2a [4] = test: Neuroprotective activity against amyloid beta-induced neurotoxicity in mouse N2A cells after 24 hrs by MTS assay; format: functional, cell-based
[5] = Inhibition of amyloid beta (1-42) fibril formation after 24 hrs by thioflavin T fluorescence method

inhibition [1]	IC50 [2]	Structure (SMILES)	Activity (N2a [3])	Activity (N2a [4])	Activity [5]
80%	1950 nM	O=C(Cc1ccccc1)NC(CSSCC(NC(=O)Cc1ccccc1)C(=O)O)C(=O)O (centres undefined)	Non-toxic		
80%	2750 nM	CNc1ccc(C(=O)NC(CCCCNC(=O)OCc2ccccc2)C(=O)O)cc1 (centres undefined)	Non-toxic		
		COC(=O)C[C@](O)(CCC(C)(C)O)C(=O)O[C@@H]1C(OC)=C[C@]23CCCN2CCc2cc4c(cc2[C@H]13)OCO4 [HARRINGTONINE]	Non-toxic	inactive	inactive
